≈ marks a conversion by molar mass, not a printed value. Where no end group is shown, it is not given here.
Tested on: planktonic P. aeruginosa
Details: broth dilution in MHB, 0-40 μM peptide, no visual growth after 24 h at 37 °C, polypropylene 96 wells plate

Row | Compound | MIC [µM]
1 | CC[C@H](C)[C@H](NC(=O)[C@H](CCCCN)NC(=O)[C@H](CCC(=O)O)NC(=O)[C@H](CCCCN)NC(=O)[C@H](CO)NC(=O)[C@H](CCCCN)NC(=O)[C@H](CCCNC(=N)N)NC(=O)[C@H](Cc1ccccc1)NC(=O)[C@H](Cc1ccccc1)NC(=O)[C@H](CC(=O)O)NC(=O)CNC(=O)[C@H](CC(C)C)NC(=O)[C@@H](N)CC(C)C)C(=O)NCC(=O)N[C@@H](CCCCN)C(=O)N[C@@H](CCC(=O)O)C(=O)N[C@@H](Cc1ccccc1)C(=O)N[C@@H](CCCCN)C(=O)N[C@@H](CCCNC(=N)N)C(=O)N[C@H](C(=O)N[C@H](C(=O)N[C@@H](CCC(N)=O)C(=O)N[C@@H](CCCNC(=N)N)C(=O)N[C@H](C(=O)N[C@@H](CCCCN)C(=O)N[C@@H](CC(=O)O)C(=O)N[C@@H](Cc1ccccc1)C(=O)N[C@@H](CC(C)C)C(=O)N[C@@H](CCCNC(=N)N)C(=O)N[C@@H](CC(N)=O)C(=O)N[C@@H](CC(C)C)C(=O)N[C@H](C(=O)N1CCC[C@H]1C(=O)N[C@@H](CCCNC(=N)N)C(=O)N[C@H](C(=O)N[C@@H](CCC(=O)O)C(=O)N[C@@H](CO)C(=O)O)[C@@H](C)O)C(C)C)[C@@H](C)CC)C(C)C)[C@@H](C)CC [LL-37] | 10 (≈ 44.9 µg/mL)
2 | GLLRKGGEKIGEKLKKIGQKIKNFFQKLVPQPEQ [CRAMP] | 40

Same assay, conditions: planktonic, 24 h

Row | Compound | MBC [µM] | MIC [µM]
3 | KRFGRLAKSFLRMRILLPRRKILLAS [eCATH-1] | 5 to 10 | 2.5 to 5
4 | KRFHSVGSLIQRHQQMIRDKSEATRHGIRIITRPKLLLAS [eCATH-3] | > 40 | > 40
5 | KRRHWFPLSFQEFLEQLRRFRDQLPFP [eCATH-2] | > 40 | > 40
6 | RFGRFLRKIRRFRPKVTITIQGSARF [cCATH-2] | 10 to 20 | 5 to 10
7 | RIIDLLWRVRRPQKPKFVTVWVR [PMAP-23] | > 40 | 40
8 | RLKELITTGGQKIGEKIRRIGQRIKDFFKNLQPREEKS [K9CATH] | > 40 | 40
9 | RRRPRPPYLPRPRPPPFFPPRLPPRIPPGFPPRFPPRFP [PR-39] | 10 | 5 to 10
10 | RVKRFWPLVPVAINTVAAGINLYKAIRRK [cCATH-3] | 5 to 10 | –

Same assay, conditions: wells without visual growth plated on TSA, 24 h at 37 °C

Row | Compound | MBC [µM]
11 | CC[C@H](C)[C@H](NC(=O)[C@H](CCCCN)NC(=O)[C@H](CCC(=O)O)NC(=O)[C@H](CCCCN)NC(=O)[C@H](CO)NC(=O)[C@H](CCCCN)NC(=O)[C@H](CCCNC(=N)N)NC(=O)[C@H](Cc1ccccc1)NC(=O)[C@H](Cc1ccccc1)NC(=O)[C@H](CC(=O)O)NC(=O)CNC(=O)[C@H](CC(C)C)NC(=O)[C@@H](N)CC(C)C)C(=O)NCC(=O)N[C@@H](CCCCN)C(=O)N[C@@H](CCC(=O)O)C(=O)N[C@@H](Cc1ccccc1)C(=O)N[C@@H](CCCCN)C(=O)N[C@@H](CCCNC(=N)N)C(=O)N[C@H](C(=O)N[C@H](C(=O)N[C@@H](CCC(N)=O)C(=O)N[C@@H](CCCNC(=N)N)C(=O)N[C@H](C(=O)N[C@@H](CCCCN)C(=O)N[C@@H](CC(=O)O)C(=O)N[C@@H](Cc1ccccc1)C(=O)N[C@@H](CC(C)C)C(=O)N[C@@H](CCCNC(=N)N)C(=O)N[C@@H](CC(N)=O)C(=O)N[C@@H](CC(C)C)C(=O)N[C@H](C(=O)N1CCC[C@H]1C(=O)N[C@@H](CCCNC(=N)N)C(=O)N[C@H](C(=O)N[C@@H](CCC(=O)O)C(=O)N[C@@H](CO)C(=O)O)[C@@H](C)O)C(C)C)[C@@H](C)CC)C(C)C)[C@@H](C)CC [LL-37] | 10 to 20
12 | GLLRKGGEKIGEKLKKIGQKIKNFFQKLVPQPEQ [CRAMP] | > 40

— publication PMC6041282, “Inhibition and Eradication of Pseudomonas aeruginosa Biofilms by Host Defence Peptides” (Scientific Reports, 2018)
